Laboratory results: patent EP4617278A1, “NUCLEOTIDE ANALOG, AND COMPOSITION AND USE THEREOF” (priority 2022, dated 2024)

The compounds below were run on SARS-CoV-2 replicon. Settings: read-out: SARS-CoV-2 Replicon (Huh-7cell) EC50.
Assay type: cell-based

Row | Compound | EC50 [nM]
1 | CCCCC/C=C\C/C=C\CCCCCCCCOC(=O)[C@H](C)NP(=O)(OCOC(=O)C(C)(C)C)OC[C@H]1O[C@@](C#N)(c2ccc3c(N)ncnn23)[C@H](OC(=O)C(C)C)[C@@H]1OC(=O)C(C)C (stereo partly drawn) [Compound 51, (2R,3R,4R,5R)-2-(4-aminopyrrolo[2,1-f][1,2,4]triazin-7-yl)-2-cyano-5-((((((S)-1-(((9Z,12Z)-octadeca-9,12-dien-1-yl)oxy)-1-oxopropan-2-yl)amino)((pivaloyloxy)methoxy)phosphoryl)oxy)methyl)tetrahydrofuran-3,4-diyl bis(2-methylpropionate)] | 50 to 500
2 | CCCCC/C=C\C/C=C\CCCCCCCCOC(=O)[C@H](C)N[P@](=O)(OCOC(=O)OC(C)C)OC[C@H]1O[C@@](C#N)(c2ccc3c(N)ncnn23)[C@H](OC(=O)C(C)C)[C@@H]1OC(=O)C(C)C [Compound 52a, (2R,3R,4R,5R)-2-(4-aminopyrrolo[2,1-f][1,2,4]triazin-7-yl)-2-cyano-5-((((R)-(((isopropoxycarbonyl)oxy)methoxy)(((S)-1-(((9Z,12Z)-octadeca-9,12-dien-1-yl)oxy)-1-oxopropan-2-yl)amino)phosphoryl)oxy)methyl)tetrahydrofuran-3,4-diyl bis(2-methylpropionate)] | 50 to 500
3 | CCCCC/C=C\C/C=C\CCCCCCCCOC(=O)[C@H](C)N[P@@](=O)(OCOC(=O)OC(C)C)OC[C@H]1O[C@@](C#N)(c2ccc3c(N)ncnn23)[C@H](OC(=O)C(C)C)[C@@H]1OC(=O)C(C)C [Compound 52b, (2R,3R,4R,5R)-2-(4-aminopyrrolo[2,1-f][1,2,4]triazin-7-yl)-2-cyano-5-((((S)-(((isopropoxycarbonyl)oxy)methoxy)(((S)-1-(((9Z,12Z)-octadeca-9,12-dien-1-yl)oxy)-1-oxopropan-2-yl)amino)phosphoryl)oxy)methyl)tetrahydrofuran-3,4-diyl bis(2-methylpropionate)] | 50 to 500
4 | CCC(CC)COC(=O)[C@H](Cc1ccccc1)N[P@@](=O)(OC[C@H]1O[C@@](C#N)(c2ccc3c(N)ncnn23)[C@H](OC(=O)C(C)C)[C@@H]1OC(=O)C(C)C)Oc1ccc(C(C)(C)C)cc1 [Compound 53a, (2R,3R,4R,5R)-2-(4-aminopyrrolo[2,1-f][1,2,4]triazin-7-yl)-2-cyano-5-((((((S)-1-(2-ethylbutoxy)-1-oxo-3-phenylpropan-2-yl)amino)((R)-4-tert-butylphenoxy)phosphoryl)oxy)methyl)tetrahydrofuran-3,4-diyl bis(2-methylpropionate)] | 50 to 500
5 | CCC(CC)COC(=O)[C@H](Cc1ccccc1)N[P@](=O)(OC[C@H]1O[C@@](C#N)(c2ccc3c(N)ncnn23)[C@H](OC(=O)C(C)C)[C@@H]1OC(=O)C(C)C)Oc1ccc(C(C)(C)C)cc1 [Compound 53b, (2R,3R,4R,5R)-2-(4-aminopyrrolo[2,1-f][1,2,4]triazin-7-yl)-2-cyano-5-((((((S)-1-(2-ethylbutoxy)-1-oxo-3-phenylpropan-2-yl)amino)((S)-4-tert-butylphenoxy)phosphoryl)oxy)methyl)tetrahydrofuran-3,4-diyl bis(2-methylpropionate)] | 10 to 50
6 | CC(C)C(=O)O[C@H]1[C@@H](OC(=O)C(C)C)[C@](C#N)(c2ccc3c(N)ncnn23)O[C@@H]1CO[P@](=O)(N[C@@H](CC(=O)OC1CCC1)C(=O)OC1CCC1)Oc1ccccc1 [Compound 54a, (2R,3R,4R,5R)-2-(4-aminopyrrolo[2,1-f][1,2,4]triazin-7-yl)-2-cyano-5-((((R)-(((S)-1,4-dicyclobutoxy-1,4-dioxobutan-2-yl)amino)(phenoxy)phosphoryl)oxy)methyl)tetrahydrofuran-3,4-diyl bis(2-methylpropionate)] | 10 to 50
7 | CC(C)C(=O)O[C@H]1[C@@H](OC(=O)C(C)C)[C@](C#N)(c2ccc3c(N)ncnn23)O[C@@H]1CO[P@@](=O)(N[C@@H](CC(=O)OC1CCC1)C(=O)OC1CCC1)Oc1ccccc1 [Compound 54b, (2R,3R,4R,5R)-2-(4-aminopyrrolo[2,1-f][1,2,4]triazin-7-yl)-2-cyano-5-((((S)-(((S)-1,4-dicyclobutoxy-1,4-dioxobutan-2-yl)amino)(phenoxy)phosphoryl)oxy)methyl)tetrahydrofuran-3,4-diyl bis(2-methylpropionate)] | < 5
8 | CCC(CC)COC(=O)C[C@H](N[P@@](=O)(OC[C@H]1O[C@@](C#N)(c2ccc3c(N)ncnn23)[C@H](OC(=O)C(C)C)[C@@H]1OC(=O)C(C)C)Oc1ccccc1)C(=O)OCC(CC)CC [Compound 62a, (2R,3R,4R,5R)-2-(4-aminopyrrolo[2,1-f][1,2,4]triazin-7-yl)-2-cyano-5-((((R)-(((S)-1,4-bis(2-ethylbutoxy)-1,4-dioxobutan-2-yl)amino)(phenoxy)phosphoryl)oxy)methyl)tetrahydrofuran-3,4-diyl bis(2-methylpropionate)] | 50 to 500
9 | CCC(CC)COC(=O)C[C@H](N[P@](=O)(OC[C@H]1O[C@@](C#N)(c2ccc3c(N)ncnn23)[C@H](OC(=O)C(C)C)[C@@H]1OC(=O)C(C)C)Oc1ccccc1)C(=O)OCC(CC)CC [Compound 62b, (2R,3R,4R,5R)-2-(4-aminopyrrolo[2,1-f][1,2,4]triazin-7-yl)-2-cyano-5-((((S)-(((S)-1,4-bis(2-ethylbutoxy)-1,4-dioxobutan-2-yl)amino)(phenoxy)phosphoryl)oxy)methyl)tetrahydrofuran-3,4-diyl bis(2-methylpropionate)] | 10 to 50
10 | CC(C)C(=O)O[C@H]1[C@@H](OC(=O)C(C)C)[C@](C#N)(c2ccc3c(N)ncnn23)O[C@@H]1CO[P@](=O)(N[C@@H](Cc1ccccc1)C(=O)OC1CCC1)Oc1ccccc1 [Compound 63a] | 10 to 50
11 | CC(C)C(=O)O[C@H]1[C@@H](OC(=O)C(C)C)[C@](C#N)(c2ccc3c(N)ncnn23)O[C@@H]1CO[P@@](=O)(N[C@@H](Cc1ccccc1)C(=O)OC1CCC1)Oc1ccccc1 [Compound 63b, (2R,3R,4R,5R)-2-(4-aminopyrrolo[2,1-f][1,2,4]triazin-7-yl)-2-cyano-5-((((S)-(((S)-1-cyclobutoxy-1-oxo-3-phenylpropan-2-yl)amino)(phenoxy)phosphoryl)oxy)methyl)tetrahydrofuran-3,4-diyl bis(2-methylpropionate)] | < 5
12 | COC(C)(C)COC(=O)[C@H](Cc1ccccc1)N[P@@](=O)(OC[C@H]1O[C@@](C#N)(c2ccc3c(N)ncnn23)[C@H](OC(=O)C(C)C)[C@@H]1OC(=O)C(C)C)Oc1ccccc1 [Compound 64a, (2R,3R,4R,5R)-2-(4-aminopyrrolo[2,1-f][1,2,4]triazin-7-yl)-2-cyano-5-((((R)-(((S)-1-(2-methoxy-2-methylpropoxy)-1-oxo-3-phenylpropan-2-yl)amino)(phenoxy)phosphoryl)oxy)methyl)tetrahydrofuran-3,4-diyl bis(2-methylpropionate)] | < 5
13 | COC(C)(C)COC(=O)[C@H](Cc1ccccc1)N[P@](=O)(OC[C@H]1O[C@@](C#N)(c2ccc3c(N)ncnn23)[C@H](OC(=O)C(C)C)[C@@H]1OC(=O)C(C)C)Oc1ccccc1 [Compound 64b, (2R,3R,4R,5R)-2-(4-aminopyrrolo[2,1-f][1,2,4]triazin-7-yl)-2-cyano-5-((((S)-(((S)-1-(2-methoxy-2-methylpropoxy)-1-oxo-3-phenylpropan-2-yl)amino)(phenoxy)phosphoryl)oxy)methyl)tetrahydrofuran-3,4-diyl bis(2-methylpropionate)] | < 5
14 | CC(C)OC(=O)OCOP(=O)(OCOC(=O)OC(C)C)OC[C@H]1O[C@@](C#N)(c2c(Br)cc3c(N)ncnn23)[C@H](OC(=O)C(C)C)[C@@H]1OC(=O)C(C)C [Compound 65, (2R,3R,4R,5R)-2-(4-amino-6-bromopyrrolo[2,1-f][1,2,4]triazin-7-yl)-5-(((bis(((isopropoxycarbonyl)oxy)methoxy)phosphoryl)oxy)methyl)-2-cyanotetrahydrofuran-3,4-diyl bis(2-methylpropionate)] | 50 to 500
15 | (2R,3R,4R,5R)-2-(4-aminopyrrolo[2,1-f][1,2,4]triazin-7-yl)-2-cyano-5-((((R)-(((S)-1-(2-ethylbutoxy)-1-oxopropan-2-yl)amino)(((isopropoxycarbonyl)oxy)methoxy)phosphoryl)oxy)methyl)tetrahydrofuran-3,4-diyl diacetate [Compound 5a] | 50 to 500
16 | (2R,3R,4R,5R)-2-(4-aminopyrrolo[2,1-f][1,2,4]triazin-7-yl)-2-cyano-5-((((R)-(((S)-1-isopropoxy-1-oxopropan-2-yl)amino)(((isopropoxycarbonyl)oxy)methoxy)phosphoryl)oxy)methyl)tetrahydrofuran-3,4-diyl diacetate [Compound 1a] | 10 to 50
17 | (2R,3R,4R,5R)-2-(4-aminopyrrolo[2,1-f][1,2,4]triazin-7-yl)-2-cyano-5-((((S)-(((S)-1-(2-ethylbutoxy)-1-oxopropan-2-yl)amino)(((isopropoxycarbonyl)oxy)methoxy)phosphoryl)oxy)methyl)tetrahydrofuran-3,4-diyl diacetate [Compound 5b] | 5 to 10
18 | (2R,3R,4R,5R)-2-(4-aminopyrrolo[2,1-f][1,2,4]triazin-7-yl)-2-cyano-5-((((S)-(((S)-1-isopropoxy-1-oxopropan-2-yl)amino)(((isopropoxycarbonyl)oxy)methoxy)phosphoryl)oxy)methyl)tetrahydrofuran-3,4-diyl diacetate [Compound 1b] | 5 to 10
19 | (2R,3R,4R,5R)-2-(4-aminopyrrolo[2,1-f][1,2,4]triazin-7-yl)-5-((((bis(((isopropoxycarbonyl)oxy)methoxy))phosphoryl)oxy)methyl)-2-cyanotetrahydrofuran-3,4-diyldiisopropyl bis(carbonate) [Compound 28] | 10 to 50
